Assay [1] has as its target T1, ALK tyrosine kinase receptor (Homo sapiens, UniProt Q9UM73).
Target sequence in this assay (Q9UM73 whole entry): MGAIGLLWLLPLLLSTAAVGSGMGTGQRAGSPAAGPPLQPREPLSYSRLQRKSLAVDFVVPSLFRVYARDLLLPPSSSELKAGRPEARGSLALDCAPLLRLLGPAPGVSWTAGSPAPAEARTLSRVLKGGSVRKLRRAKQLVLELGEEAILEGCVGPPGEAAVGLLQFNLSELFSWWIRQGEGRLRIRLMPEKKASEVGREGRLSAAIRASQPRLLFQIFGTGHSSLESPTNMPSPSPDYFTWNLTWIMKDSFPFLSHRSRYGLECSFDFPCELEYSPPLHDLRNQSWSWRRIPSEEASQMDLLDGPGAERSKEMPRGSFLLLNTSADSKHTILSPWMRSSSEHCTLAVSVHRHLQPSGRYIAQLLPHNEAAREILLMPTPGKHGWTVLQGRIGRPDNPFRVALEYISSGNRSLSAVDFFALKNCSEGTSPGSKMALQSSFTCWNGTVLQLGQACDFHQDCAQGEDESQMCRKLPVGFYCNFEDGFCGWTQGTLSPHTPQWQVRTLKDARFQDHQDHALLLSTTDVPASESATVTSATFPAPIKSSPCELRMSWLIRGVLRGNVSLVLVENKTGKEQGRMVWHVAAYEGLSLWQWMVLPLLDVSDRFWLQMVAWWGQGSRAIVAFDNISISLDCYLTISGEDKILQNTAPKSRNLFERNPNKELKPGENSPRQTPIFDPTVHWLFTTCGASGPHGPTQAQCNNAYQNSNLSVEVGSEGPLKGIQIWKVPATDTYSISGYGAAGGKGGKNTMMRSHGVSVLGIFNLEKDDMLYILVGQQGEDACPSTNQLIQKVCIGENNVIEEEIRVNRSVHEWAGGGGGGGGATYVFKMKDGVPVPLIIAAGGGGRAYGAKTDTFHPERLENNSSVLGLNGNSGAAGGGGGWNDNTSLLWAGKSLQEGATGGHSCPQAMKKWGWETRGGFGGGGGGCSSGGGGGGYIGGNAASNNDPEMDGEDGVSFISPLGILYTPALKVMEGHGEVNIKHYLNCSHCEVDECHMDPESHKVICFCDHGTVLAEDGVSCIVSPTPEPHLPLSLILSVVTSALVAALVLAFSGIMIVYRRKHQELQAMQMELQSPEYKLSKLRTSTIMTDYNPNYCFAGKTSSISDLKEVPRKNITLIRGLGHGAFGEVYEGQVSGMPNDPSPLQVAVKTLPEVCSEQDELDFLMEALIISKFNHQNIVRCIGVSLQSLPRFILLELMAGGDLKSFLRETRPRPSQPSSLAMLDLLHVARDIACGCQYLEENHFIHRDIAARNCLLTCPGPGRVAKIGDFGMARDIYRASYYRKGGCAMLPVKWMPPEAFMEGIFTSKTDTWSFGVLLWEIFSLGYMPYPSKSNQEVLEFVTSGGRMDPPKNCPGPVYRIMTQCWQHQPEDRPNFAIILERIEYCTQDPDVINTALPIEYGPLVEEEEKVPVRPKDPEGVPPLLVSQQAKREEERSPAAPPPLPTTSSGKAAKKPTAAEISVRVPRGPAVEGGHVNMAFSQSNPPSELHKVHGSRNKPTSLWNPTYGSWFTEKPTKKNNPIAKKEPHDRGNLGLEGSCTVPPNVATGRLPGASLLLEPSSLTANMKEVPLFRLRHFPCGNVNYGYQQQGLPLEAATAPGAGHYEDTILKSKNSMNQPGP
Description: Inhibition of ALK (unknown origin) using peptide as substrate after 60 mins by HTRF assay
A short description of assay [2]: cells. The settings on record: Homo sapiens, HCC78, 72 h.
Description: Cytotoxicity against human HCC78 cells harboring SLC34A2-ROS1 assessed as reduction in cell proliferation after 72 hrs by MTT assay
Assay [3] has as its target Hepatocyte growth factor receptor (Homo sapiens, UniProt P08581).
Description: Inhibition of c-Met (unknown origin) using peptide as substrate after 60 mins by HTRF assay
Assay [4] addresses Epidermal growth factor receptor (Homo sapiens, UniProt P00533).
Description: Inhibition of EGFR (unknown origin) using peptide as substrate after 60 mins by HTRF assay
A short description of assay [5]: cells. The settings on record: Homo sapiens, NCI-H460, 72 h.
Description: Cytotoxicity against human NCI-H460 cells assessed as reduction in cell proliferation after 72 hrs by MTT assay
Assay [6] in a line: cells. The settings on record: Homo sapiens, KARPAS-299, 72 h.
Description: Cytotoxicity against human KARPAS299 cells harboring NPM-ALK assessed as reduction in cell proliferation after 72 hrs by MTT assay
In assay [7] the target is T1, ALK tyrosine kinase receptor. In words: Potency index, ratio of crizotinib IC50 to compound IC50 for ALK (unknown origin).
Target sequence in this assay (Q9UM73 19-1620 limits assumed): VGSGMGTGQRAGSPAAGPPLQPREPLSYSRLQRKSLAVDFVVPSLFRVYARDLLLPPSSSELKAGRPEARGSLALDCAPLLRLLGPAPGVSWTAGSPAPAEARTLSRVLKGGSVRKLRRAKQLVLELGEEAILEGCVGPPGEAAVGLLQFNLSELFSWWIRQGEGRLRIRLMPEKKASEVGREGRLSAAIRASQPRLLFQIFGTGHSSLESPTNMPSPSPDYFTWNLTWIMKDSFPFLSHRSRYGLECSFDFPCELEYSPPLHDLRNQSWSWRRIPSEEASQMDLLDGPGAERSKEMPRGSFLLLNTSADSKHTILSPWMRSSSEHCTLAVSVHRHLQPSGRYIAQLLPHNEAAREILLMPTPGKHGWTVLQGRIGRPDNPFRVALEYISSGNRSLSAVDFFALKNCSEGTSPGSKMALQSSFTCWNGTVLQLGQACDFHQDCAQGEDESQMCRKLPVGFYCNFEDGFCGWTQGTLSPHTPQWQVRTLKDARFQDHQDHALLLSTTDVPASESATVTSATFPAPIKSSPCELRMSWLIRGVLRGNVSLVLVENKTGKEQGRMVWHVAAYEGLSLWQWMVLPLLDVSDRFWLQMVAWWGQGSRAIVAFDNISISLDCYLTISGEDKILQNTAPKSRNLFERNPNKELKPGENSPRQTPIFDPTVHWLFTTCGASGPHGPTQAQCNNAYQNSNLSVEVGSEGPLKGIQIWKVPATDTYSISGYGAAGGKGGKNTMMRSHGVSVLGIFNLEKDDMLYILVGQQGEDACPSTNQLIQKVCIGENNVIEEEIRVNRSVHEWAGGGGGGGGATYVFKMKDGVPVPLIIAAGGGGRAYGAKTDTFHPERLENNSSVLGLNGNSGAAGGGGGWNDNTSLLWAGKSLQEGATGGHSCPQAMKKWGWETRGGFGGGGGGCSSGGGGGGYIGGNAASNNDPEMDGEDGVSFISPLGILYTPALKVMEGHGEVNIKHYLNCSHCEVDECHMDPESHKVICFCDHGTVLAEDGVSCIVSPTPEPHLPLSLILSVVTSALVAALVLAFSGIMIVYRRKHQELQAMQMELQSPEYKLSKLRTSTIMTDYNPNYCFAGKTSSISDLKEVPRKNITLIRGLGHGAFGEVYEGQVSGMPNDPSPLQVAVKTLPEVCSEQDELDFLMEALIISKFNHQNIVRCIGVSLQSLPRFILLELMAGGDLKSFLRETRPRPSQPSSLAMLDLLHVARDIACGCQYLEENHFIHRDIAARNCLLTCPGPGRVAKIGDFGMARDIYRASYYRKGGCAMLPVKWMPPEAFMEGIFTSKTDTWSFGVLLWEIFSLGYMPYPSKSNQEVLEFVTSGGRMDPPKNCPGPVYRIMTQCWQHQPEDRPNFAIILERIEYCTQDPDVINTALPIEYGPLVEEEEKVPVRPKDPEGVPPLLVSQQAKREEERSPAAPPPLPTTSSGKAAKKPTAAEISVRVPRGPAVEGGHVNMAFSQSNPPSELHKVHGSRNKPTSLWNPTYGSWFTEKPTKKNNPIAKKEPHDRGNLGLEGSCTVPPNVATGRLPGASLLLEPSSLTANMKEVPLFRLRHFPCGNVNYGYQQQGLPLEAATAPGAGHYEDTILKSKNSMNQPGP
Assay [8] has as its target Proto-oncogene tyrosine-protein kinase ROS (Homo sapiens, UniProt P08922).
Description: Inhibition of ROS1 (unknown origin) using peptide as substrate after 60 mins by HTRF assay
For assay [9], the system named is ALK tyrosine kinase receptor (Homo sapiens), Q9UM73 [L1196M]. Briefly: Potency index, ratio of crizotinib IC50 to compound IC50 for ALK L1196M mutant (unknown origin).
Assay [10] concerns the target ALK tyrosine kinase receptor (Homo sapiens, UniProt Q9UM73, L1196M).
The nature of assay [11]: cells. The settings on record: Homo sapiens, HT-29, 72 h.
Description: Cytotoxicity against human HT-29 cells assessed as reduction in cell proliferation after 72 hrs by MTT assay
Assay [12] is described as follows: cells. The settings on record: Homo sapiens, A549, 72 h.
Description: Cytotoxicity against human A549 cells assessed as reduction in cell proliferation after 72 hrs by MTT assay
Another assay relates to KARPAS-299. In words: Potency index, ratio of crizotinib IC50 to compound IC50 against human KARPAS299 cells harboring NPM-ALK. Type of assay: functional.
The next assay relates to HCC78. In words: Potency index, ratio of crizotinib IC50 to compound IC50 against human HCC78 cells harboring SLC34A2-ROS1. Type of assay: functional.

This is an account of results in ChEMBL document CHEMBL3870304 (Eur J Med Chem, 2016).

SMILES strings stand for the structures.

Chain of ALK tyrosine kinase receptor (Homo sapiens, UniProt Q9UM73, L1196M) (Q9UM73 19-1620 L1196M limits assumed): as the sequence (Q9UM73 19-1620 limits assumed) above, with L1178M counted along it
Chain of Epidermal growth factor receptor (P00533 whole entry): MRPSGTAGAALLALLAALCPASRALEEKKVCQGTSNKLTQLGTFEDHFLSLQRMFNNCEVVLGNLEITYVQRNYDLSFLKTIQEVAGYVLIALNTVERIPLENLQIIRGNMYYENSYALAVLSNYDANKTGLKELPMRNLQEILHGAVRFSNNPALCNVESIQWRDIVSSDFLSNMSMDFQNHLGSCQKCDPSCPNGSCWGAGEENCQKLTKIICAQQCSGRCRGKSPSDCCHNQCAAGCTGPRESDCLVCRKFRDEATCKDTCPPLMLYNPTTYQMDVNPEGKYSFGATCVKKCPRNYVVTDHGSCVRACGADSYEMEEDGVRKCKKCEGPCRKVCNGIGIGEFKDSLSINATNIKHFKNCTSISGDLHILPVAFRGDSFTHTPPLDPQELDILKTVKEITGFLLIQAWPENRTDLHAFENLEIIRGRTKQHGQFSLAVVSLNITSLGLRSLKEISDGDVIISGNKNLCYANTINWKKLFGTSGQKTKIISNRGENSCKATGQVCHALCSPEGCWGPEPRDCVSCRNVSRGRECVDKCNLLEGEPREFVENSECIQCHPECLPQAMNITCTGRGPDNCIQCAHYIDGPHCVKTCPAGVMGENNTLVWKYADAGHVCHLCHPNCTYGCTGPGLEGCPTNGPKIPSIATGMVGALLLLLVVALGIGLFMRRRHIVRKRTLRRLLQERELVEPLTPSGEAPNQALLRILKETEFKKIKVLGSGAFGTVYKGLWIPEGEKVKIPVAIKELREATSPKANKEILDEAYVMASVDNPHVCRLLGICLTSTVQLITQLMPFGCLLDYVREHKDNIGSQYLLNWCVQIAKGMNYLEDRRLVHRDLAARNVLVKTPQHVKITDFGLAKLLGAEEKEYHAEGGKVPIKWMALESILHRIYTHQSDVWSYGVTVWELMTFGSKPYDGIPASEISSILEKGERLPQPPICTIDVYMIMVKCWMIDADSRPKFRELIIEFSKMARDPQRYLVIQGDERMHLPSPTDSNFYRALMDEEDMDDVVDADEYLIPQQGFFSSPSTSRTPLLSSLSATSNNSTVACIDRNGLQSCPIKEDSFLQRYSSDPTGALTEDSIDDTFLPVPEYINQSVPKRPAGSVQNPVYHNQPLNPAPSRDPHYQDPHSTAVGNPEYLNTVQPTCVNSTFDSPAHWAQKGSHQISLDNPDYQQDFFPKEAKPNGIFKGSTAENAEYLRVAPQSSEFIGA
Chain of ALK tyrosine kinase receptor (Homo sapiens), Q9UM73 [L1196M] (Q9UM73 whole entry L1196M, looked up): as the sequence (Q9UM73 whole entry) above, with L1196M counted along it

`CC(C)S(=O)(=O)c1ccccc1Nc1nc(N/N=C/c2ccc(F)cc2)ncc1Cl`: the IC50 in [1] came out at 2.3 nM; in “cells [2]”, 19 nM; in assay [3] it was 220 nM; in [4], 570 nM; in the assay “cells [5]”, 1300 nM; in the assay “cells [6]”, 16 nM. Also, the half-inhibitory concentration (IC50) turned out to be 1.8 nM in assay [8], 45 nM in assay [10], 1760 nM in the assay “cells [11]” and 1400 nM in “cells [12]”. The Ratio IC50 in [7] amounted to 9; in assay [9] it was 20.

With `C/C(=N\Nc1ncc(Cl)c(Nc2ccccc2S(=O)(=O)C(C)C)n1)c1ccc(F)cc1`, the IC50 in assay [1] was 2.5 nM; in the assay “cells [2]”, 28 nM; in [3] it was > 1000 nM; in assay [4], > 1000 nM; in “cells [5]” it was > 10000 nM; in the assay “cells [6]”, 20 nM. The IC50 is 2.7 nM in [8], 67 nM in assay [10], > 10000 nM in the assay “cells [11]” and > 10000 nM in the assay “cells [12]”. Further, the “Ratio IC50” value worked out at 2.4 in the assay with KARPAS-299, 11.1 in the assay with HCC78, 9 in assay [7] and 20 in [9].

In the case of `CC(C)S(=O)(=O)c1ccccc1Nc1nc(N/N=C/c2cccc(C(F)(F)F)c2)ncc1Cl`, the IC50 in assay [1] was 5.5 nM; in “cells [2]”, 80 nM; in assay [3], 479 nM; in [4] it was 460 nM; in “cells [5]”, > 10000 nM; in “cells [6]” it was 65 nM. In addition, the IC50 in assay [8] came to 5 nM; in assay [10], 69 nM; in “cells [11]”, 5500 nM; in “cells [12]”, 3340 nM. For the same molecule, in assay [9], the Ratio IC50 came out at 20.

One may read the IC50 as the concentration at which inhibition is half-maximal. Read a high IC50 as lower potency.
